In patent US20260262643A1, “HERBICIDAL BENZOXAZINES” (FMC CORPORATION, priority 2022, published 2026):

What was measured:
[1] = tested on: oat, wild; test: Test C preemergence; assay type: in vivo, Avena fatua
In short: (§1)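 Visual injury ratings on a 0–100 scale (100 = complete control) were made against untreated controls 10 days after treatment in the greenhouse. Compounds, formulated with surfactant in non-phytotoxic solvent, were sprayed on soil preemergence or onto one- to two-leaf plants 2–10 cm tall postemergence.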

[2] = tested on: soybean; test: Test C preemergence; assay type: in vivo, Glycine max
In short: as §1

[3] = tested on: wheat; test: Test C postemergence; assay type: in vivo, Triticum aestivum; details: Postemergence, 125 g ai/ha; 0 to 100 scale (0 no effect, 100 complete control), 10 days
In short: as §1

[4] = tested on: blackgrass; test: Test C postemergence; assay type: in vivo, Alopecurus myosuroides; details: 10 days, 0 to 100 scale (0 no effect, 100 complete control)
In short: as §1

[5] = tested on: galium; test: Test C postemergence; assay type: in vivo, Galium aparine; details: 10 days, 0 to 100 scale (0 no effect, 100 complete control)
In short: as §1

[6] = tested on: corn; test: Test C postemergence; assay type: in vivo, Zea mays; details: 10 days, 0 to 100 scale (0 no effect, 100 complete control)
In short: as §1

[7] = tested on: corn; test: Test C preemergence; assay type: in vivo, Zea mays
In short: as §1

[8] = tested on: blackgrass; test: Test C preemergence; assay type: in vivo, Alopecurus myosuroides
In short: as §1

[9] = tested on: horseweed; test: Test C postemergence; assay type: in vivo, Erigeron canadensis; details: 10 days, 0 to 100 scale (0 no effect, 100 complete control)
In short: as §1

[10] = tested on: sedge, umbrella; test: Test D flooded paddy test; assay type: in vivo, Cyperus difformis; details: 250 g ai/ha, applied to paddy water, visual rating after 13 to 14 days, scale 0 to 100 (0 no effect, 100 complete control)
In short: (§2)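 Compounds go straight into paddy water over 2-leaf plants in pots flooded to 3 cm. Greenhouse holding lasts 13 to 14 days. Injury is scored by eye against controls from 0 (none) to 100 (complete control).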

[11] = tested on: ducksalad; test: Test D flooded paddy test; assay type: in vivo, Heteranthera limosa; details: 250 g ai/ha, applied to paddy water, visual rating after 13 to 14 days, scale 0 to 100 (0 no effect, 100 complete control)
In short: as §2

[12] = tested on: ragweed; test: Test C postemergence; assay type: in vivo, Ambrosia artemisiifolia; details: Postemergence, 125 g ai/ha; 0 to 100 scale (0 no effect, 100 complete control), 10 days
In short: as §1

[13] = tested on: soybean; test: Test C postemergence; assay type: in vivo, Glycine max; details: Postemergence, 125 g ai/ha; 0 to 100 scale (0 no effect, 100 complete control), 10 days
In short: as §1

[14] = tested on: kochia; test: Test C postemergence; assay type: in vivo, Bassia scoparia; details: 10 days, 0 to 100 scale (0 no effect, 100 complete control)
In short: as §1

[15] = tested on: barnyardgrass; test: Test C postemergence; assay type: in vivo, Echinochloa crusgalli; details: 10 days, 0 to 100 scale (0 no effect, 100 complete control)
In short: as §1

[16] = tested on: ryegrass, Italian; test: Test C preemergence; assay type: in vivo, Lolium multiflorum
In short: as §1

[17] = tested on: pigweed, palmer; test: Test C postemergence; assay type: in vivo, Amaranthus palmeri; details: 10 days, 0 to 100 scale (0 no effect, 100 complete control)
In short: as §1

[18] = tested on: oat, wild; test: Test C postemergence; assay type: in vivo, Avena fatua; details: 10 days, 0 to 100 scale (0 no effect, 100 complete control)
In short: as §1

[19] = tested on: barnyardgrass; test: Test D flooded paddy test; assay type: in vivo, Echinochloa crus-galli; details: 250 g ai/ha, applied to paddy water, visual rating after 13 to 14 days, scale 0 to 100 (0 no effect, 100 complete control)
In short: as §2

[20] = tested on: pigweed, palmer; test: Test C preemergence; assay type: in vivo, Amaranthus palmeri
In short: as §1

[21] = tested on: green foxtail; test: Test C preemergence; assay type: in vivo, Setaria viridis
In short: as §1

[22] = tested on: wheat; test: Test C preemergence; assay type: in vivo, Triticum aestivum
In short: as §1

[23] = tested on: green foxtail; test: Test C postemergence; assay type: in vivo, Setaria viridis; details: 10 days, 0 to 100 scale (0 no effect, 100 complete control)
In short: as §1

[24] = tested on: ryegrass, Italian; test: Test C postemergence; assay type: in vivo, Lolium multiflorum; details: Postemergence, 125 g ai/ha; 0 to 100 scale (0 no effect, 100 complete control), 10 days
In short: as §1

[25] = tested on: barnyardgrass; test: Test C preemergence; assay type: in vivo, Echinochloa crusgalli
In short: as §1

[26] = tested on: kochia; test: Test C preemergence; assay type: in vivo, Bassia scoparia
In short: as §1

[27] = tested on: ragweed; test: Test C preemergence; assay type: in vivo, Ambrosia artemisiifolia
In short: as §1

[28] = tested on: rice; test: Test D flooded paddy test; assay type: in vivo, Oryza sativa; details: 250 g ai/ha, applied to paddy water, visual rating after 13 to 14 days, scale 0 to 100 (0 no effect, 100 complete control)
In short: as §2

[29] = 500 g ai/ha, preemergence, 0 to 100 scale (0 no effect, 100 complete control)
[30] = Preemergence, 125 g ai/ha, 0 to 100 scale, 0 no effect, 100 complete control

CCOC[C@H]1CN(C(=O)c2cc(-n3cnc(CC)n3)ccc2C)c2cccc(Cl)c2O1 [Compound 412]
Oat, Wild plant response rating [1, 29]: 0
Plant response rating, Oat, Wild [1, 30]: 0
Soybean plant response rating [2, 29]: 90
Plant response rating, Soybean [2, 30]: 60
Plant response rating, Wheat [3]: 20
Plant response rating, Blackgrass ([4]; 500 g ai/ha, postemergence): 90
Plant response rating, Blackgrass ([4]; Postemergence, 125 g ai/ha): 60
Plant response rating, Galium ([5]; 500 g ai/ha, postemergence): 100
Plant response rating, Galium ([5]; Postemergence, 125 g ai/ha): 100
Plant response rating, Corn ([6]; 500 g ai/ha, postemergence): 20
Plant response rating, Corn ([6]; Postemergence, 125 g ai/ha): 20
Corn plant response rating [7, 29]: 30
Plant response rating, Corn [7, 30]: 0
Blackgrass plant response rating [8, 29]: 90
Plant response rating, Blackgrass [8, 30]: 50
Plant response rating, Horseweed ([9]; 500 g ai/ha, postemergence): 30
Plant response rating, Horseweed ([9]; Postemergence, 125 g ai/ha): 20
Plant response rating, Sedge, Umbrella (Flood) [10]: 90
Plant response rating, Ducksalad (Flood) [11]: 75
Plant response rating, Ragweed [12]: 90
Plant response rating, Soybean [13]: 100
Plant response rating, Kochia ([14]; 500 g ai/ha, postemergence): 90
Plant response rating, Kochia ([14]; Postemergence, 125 g ai/ha): 80
Plant response rating, Barnyardgrass ([15]; 500 g ai/ha, postemergence): 80
Plant response rating, Barnyardgrass ([15]; Postemergence, 125 g ai/ha): 40
Ryegrass, Italian plant response rating [16, 29]: 90
Plant response rating, Ryegrass, Italian [16, 30]: 80
Plant response rating, Pigweed, Palmer ([17]; 500 g ai/ha, postemergence): 90
Plant response rating, Pigweed, Palmer ([17]; Postemergence, 125 g ai/ha): 80
Plant response rating, Oat, Wild ([18]; 500 g ai/ha, postemergence): 50
Plant response rating, Oat, Wild ([18]; Postemergence, 125 g ai/ha): 20
Plant response rating, Barnyardgrass (Flood) [19]: 25
Pigweed, Palmer plant response rating [20, 29]: 100
Plant response rating, Pigweed, Palmer [20, 30]: 100
Foxtail, Green plant response rating [21, 29]: 100
Plant response rating, Foxtail, Green [21, 30]: 100
Wheat plant response rating [22, 29]: 30
Plant response rating, Wheat [22, 30]: 30
Plant response rating, Foxtail, Green ([23]; 500 g ai/ha, postemergence): 90
Plant response rating, Foxtail, Green ([23]; Postemergence, 125 g ai/ha): 80
Plant response rating, Ryegrass, Italian [24]: 70
Barnyardgrass plant response rating [25, 29]: 80
Plant response rating, Barnyardgrass [25, 30]: 60
Kochia plant response rating [26, 29]: 80
Plant response rating, Kochia [26, 30]: 30
Ragweed plant response rating [27, 29]: 100
Plant response rating, Ragweed [27, 30]: 50
Plant response rating, Rice (Flood) [28]: 10
